Data as given in ChEMBL document CHEMBL1201862, “PubChem BioAssay data set” (2004).
Values joined by “and” are separate entries in the source; they are usually repeats but may differ in a detail not shown here. Equal values may be shown once.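 Five concentrations, 48 hours, 96-well plates. At the GI50, growth is halved.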 Active and inactive are the calls of the source. No stated cut-off is given here; in the data, active = GI50 up to about 1.1 µM and inactive = higher.

Experiments:
Test in all cases: NCI tumour cell line growth inhibition, 48 h
SK-MEL-28 = tested on: SK-MEL-28
SF-539 = tested on: SF-539
UACC-62 = tested on: UACC-62
SR = tested on: SR
NCI-H23 = tested on: NCI-H23
K562 = tested on: K562
SF-268 = tested on: SF-268
ACHN = tested on: ACHN
KM12 = tested on: KM12
M19-MEL = tested on: M19-MEL
MOLT-4 = tested on: MOLT-4
CCRF-CEM = tested on: CCRF-CEM
LXFL 529 = tested on: LXFL 529
KM-20L2 = tested on: KM-20L2
SK-OV-3 = tested on: SK-OV-3
SNB-78 = tested on: SNB-78
SNB-75 = tested on: SNB-75
HL-60 = tested on: HL-60
NCI-H460 = tested on: NCI-H460
HT-29 = tested on: HT-29
DMS-114 = tested on: DMS-114
OVCAR-4 = tested on: OVCAR-4
RPMI-8226 = tested on: RPMI-8226
SK-MEL-2 = tested on: SK-MEL-2
NCI-H522 = tested on: NCI-H522
COLO 205 = tested on: COLO 205
SK-MEL-5 = tested on: SK-MEL-5
HCT-116 = tested on: HCT-116
RXF 393 = tested on: RXF 393
T47D = tested on: T47D
CAKI-1 = tested on: CAKI-1
BT-549 = tested on: BT-549
HCC 2998 = tested on: HCC 2998
PC-3 = tested on: PC-3
U-251 = tested on: U-251
A549 = tested on: A549
OVCAR-5 = tested on: OVCAR-5
UO-31 = tested on: UO-31
NCI/ADR-RES = tested on: NCI/ADR-RES
SNB-19 = tested on: SNB-19
M14 = tested on: M14
LOX IMVI = tested on: LOX IMVI
MDA-N = tested on: MDA-N
MDA-MB-231 = tested on: MDA-MB-231
EKVX = tested on: EKVX
MCF7 = tested on: MCF7
OVCAR-3 = tested on: OVCAR-3
Hs-578T = tested on: Hs-578T
SW-620 = tested on: SW-620
MDA-MB-435 = tested on: MDA-MB-435
DU-145 = tested on: DU-145
A498 = tested on: A498
HCT-15 = tested on: HCT-15
UACC-257 = tested on: UACC-257
SN12C = tested on: SN12C
SF-295 = tested on: SF-295
786-0 = tested on: 786-0
TK-10 = tested on: TK-10
NCI-H226 = tested on: NCI-H226
Malme-3M = tested on: Malme-3M
OVCAR-8 = tested on: OVCAR-8
HOP-92 = tested on: HOP-92
IGROV-1 = tested on: IGROV-1
HOP-62 = tested on: HOP-62

## CCCSc1nc(-c2ccc(OC)cc2)c(C#N)c(=O)n1C1OC(COC(C)=O)C(OC(C)=O)C(OC(C)=O)C1OC(C)=O (stereo not given)
SK-MEL-28
  GI50: > 100 µM (inactive)
SF-539
  GI50: > 100 µM (inactive)
UACC-62
  GI50: > 100 µM (inactive)
SR
  GI50: > 100 µM (inactive)
NCI-H23
  GI50: > 100 µM (inactive)
K562
  GI50: > 100 µM (inactive)
SF-268
  GI50: > 100 µM (inactive)
ACHN
  GI50: > 100 µM (inactive)
KM12
  GI50: > 100 µM (inactive)
M19-MEL
  GI50: > 100 µM (inactive)
MOLT-4
  GI50: > 100 µM (inactive)
CCRF-CEM
  GI50: > 100 µM (inactive)
LXFL 529
  GI50: > 100 µM (inactive)
KM-20L2
  GI50: > 100 µM (inactive) and 54.6 µM (inactive)
SK-OV-3
  GI50: > 100 µM (inactive)
SNB-78
  GI50: 99.3 µM (inactive)
SNB-75
  GI50: 42.3 µM (inactive)
HL-60
  GI50: > 100 µM (inactive)
NCI-H460
  GI50: > 100 µM (inactive)
HT-29
  GI50: > 100 µM (inactive) and 65.9 µM (inactive)
DMS-114
  GI50: > 100 µM (inactive)
OVCAR-4
  GI50: > 100 µM (inactive)
RPMI-8226
  GI50: > 100 µM (inactive)
SK-MEL-2
  GI50: > 100 µM (inactive)
NCI-H522
  GI50: > 100 µM (inactive)
COLO 205
  GI50: > 100 µM (inactive)

## Cn1c([N+](=O)[O-])cnc1CN1CCN(CCO)CC1
SK-MEL-5
  GI50: > 100 µM (inactive)
SK-MEL-28
  GI50: > 100 µM (inactive)
SF-539
  GI50: > 100 µM (inactive)
HCT-116
  GI50: > 100 µM (inactive)
UACC-62
  GI50: > 100 µM (inactive)
RXF 393
  GI50: > 100 µM (inactive)
T47D
  GI50: > 100 µM (inactive)
SR
  GI50: > 100 µM (inactive)
CAKI-1
  GI50: > 100 µM (inactive)
NCI-H23
  GI50: > 100 µM (inactive)
K562
  GI50: > 100 µM (inactive)
BT-549
  GI50: > 100 µM (inactive)
SF-268
  GI50: > 100 µM (inactive)
ACHN
  GI50: > 100 µM (inactive)
KM12
  GI50: > 100 µM (inactive)
HCC 2998
  GI50: > 100 µM (inactive)
PC-3
  GI50: > 100 µM (inactive)
U-251
  GI50: > 100 µM (inactive)
A549
  GI50: > 100 µM (inactive)
OVCAR-5
  GI50: > 100 µM (inactive)
UO-31
  GI50: > 100 µM (inactive)
NCI/ADR-RES
  GI50: > 100 µM (inactive)
SNB-19
  GI50: > 100 µM (inactive)
M14
  GI50: > 100 µM (inactive)
MOLT-4
  GI50: > 100 µM (inactive)
CCRF-CEM
  GI50: > 100 µM (inactive)
LOX IMVI
  GI50: > 100 µM (inactive)
MDA-N
  GI50: > 100 µM (inactive)
MDA-MB-231
  GI50: > 100 µM (inactive)
EKVX
  GI50: > 100 µM (inactive)
SK-OV-3
  GI50: > 100 µM (inactive)
MCF7
  GI50: > 100 µM (inactive)
SNB-75
  GI50: > 100 µM (inactive)
OVCAR-3
  GI50: > 100 µM (inactive)
Hs-578T
  GI50: > 100 µM (inactive)
SW-620
  GI50: > 100 µM (inactive)
HL-60
  GI50: > 100 µM (inactive)
MDA-MB-435
  GI50: > 100 µM (inactive)
DU-145
  GI50: > 100 µM (inactive)
A498
  GI50: > 100 µM (inactive)
HCT-15
  GI50: > 100 µM
UACC-257
  GI50: > 100 µM (inactive)
SN12C
  GI50: > 100 µM (inactive)
SF-295
  GI50: > 100 µM (inactive)
786-0
  GI50: > 100 µM (inactive)
NCI-H460
  GI50: > 100 µM (inactive)
HT-29
  GI50: > 100 µM (inactive)
TK-10
  GI50: > 100 µM (inactive)
OVCAR-4
  GI50: > 100 µM (inactive)
RPMI-8226
  GI50: > 100 µM (inactive)
SK-MEL-2
  GI50: > 100 µM (inactive)
NCI-H226
  GI50: > 100 µM (inactive)
Malme-3M
  GI50: > 100 µM (inactive)
OVCAR-8
  GI50: > 100 µM (inactive)
NCI-H522
  GI50: > 100 µM (inactive)
HOP-92
  GI50: > 100 µM (inactive)
IGROV-1
  GI50: > 100 µM (inactive)
COLO 205
  GI50: > 100 µM (inactive)
HOP-62
  GI50: > 100 µM (inactive)
